Data taken from US9765075B2, “Substituted bridged urea analogs as sirtuin modulators” (GLAXOSMITHKLINE LLC, priority 2013, dated 2017).
Numbering of substitutions follows the chain as printed.

Key:
Experiment in all cases: SIRT1 activation dose-response, OAcADPr assay with Ac-p53(W5) substrate
Type in all cases: biochemical
full-length hSIRT1 N226A = target: T1, full-length hSIRT1 N226A (Homo sapiens, UniProt Q96EB6, N226A); conditions: for EC50: hSIRT1 N226A, activation dose-response, Ac-p53(W5) substrate
T1 construct: The following point mutants of full-length hSIRT1 were generated; His6 (C); made in house
T1 sequence (Q96EB6 1-747 N226A): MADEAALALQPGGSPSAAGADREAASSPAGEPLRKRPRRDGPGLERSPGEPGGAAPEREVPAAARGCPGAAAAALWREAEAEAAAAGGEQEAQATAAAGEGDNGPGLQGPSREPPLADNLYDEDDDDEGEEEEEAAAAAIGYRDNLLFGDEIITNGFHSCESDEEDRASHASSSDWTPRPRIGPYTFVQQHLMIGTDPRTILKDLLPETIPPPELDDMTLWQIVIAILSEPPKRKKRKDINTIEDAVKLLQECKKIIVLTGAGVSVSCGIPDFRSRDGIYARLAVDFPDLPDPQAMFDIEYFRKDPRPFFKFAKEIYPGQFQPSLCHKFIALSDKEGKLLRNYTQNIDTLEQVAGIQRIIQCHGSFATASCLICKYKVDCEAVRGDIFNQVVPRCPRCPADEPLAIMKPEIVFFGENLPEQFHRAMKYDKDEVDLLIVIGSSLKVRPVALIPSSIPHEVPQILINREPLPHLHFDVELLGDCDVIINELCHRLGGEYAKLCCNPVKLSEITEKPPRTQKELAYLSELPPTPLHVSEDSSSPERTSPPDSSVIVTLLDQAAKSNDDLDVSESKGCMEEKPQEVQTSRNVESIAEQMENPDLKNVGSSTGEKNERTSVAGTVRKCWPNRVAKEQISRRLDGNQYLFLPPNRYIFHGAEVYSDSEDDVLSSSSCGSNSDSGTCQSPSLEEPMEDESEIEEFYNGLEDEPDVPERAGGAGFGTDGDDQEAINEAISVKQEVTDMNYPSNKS

full-length hSIRT1 V224A = target: T2, full-length hSIRT1 V224A (Homo sapiens, UniProt Q96EB6, V224A); conditions: for EC50: hSIRT1 V224A, activation dose-response, Ac-p53(W5) substrate
T2 construct: The following point mutants of full-length hSIRT1 were generated; His6 (C); made in house
T2 sequence (Q96EB6 1-747 V224A): T1 sequence (Q96EB6 1-747 N226A) with V224A, A226N

full-length hSIRT1 E230K = target: T3, full-length hSIRT1 E230K (Homo sapiens, UniProt Q96EB6, E230K); conditions: for EC50: hSIRT1 E230K, activation dose-response, Ac-p53(W5) substrate
T3 construct: His6 (C); made in house
T3 sequence (Q96EB6 1-747 E230K): T1 sequence (Q96EB6 1-747 N226A) with A226N, E230K

EC50 fold shift (mutant EC50/wild-type EC50) (full-length hSIRT1 N226A)	RVmax fold shift = (wild-type RVmax−1)/(mutant RVmax−1) (full-length hSIRT1 N226A)	EC50 (full-length hSIRT1 N226A)	EC50 fold shift (mutant EC50/wild-type EC50) (full-length hSIRT1 V224A)	RVmax fold shift = (wild-type RVmax−1)/(mutant RVmax−1) (full-length hSIRT1 V224A)	EC50 (full-length hSIRT1 V224A)	EC50 fold shift (mutant EC50/wild-type EC50) (full-length hSIRT1 E230K)	RVmax fold shift = (wild-type RVmax−1)/(mutant RVmax−1) (full-length hSIRT1 E230K)	EC50 (full-length hSIRT1 E230K)	Compound
1.78	1.32	3920 nM	1.18	0.72	2600 nM	1.46	8.67	3210 nM	O=C(Nc1ccccn1)N1c2nc(-c3cccc(C(F)(F)F)c3)ccc2N2CC[C@H]1C2 [Example 7]
2.15	1.34	1030 nM	1.87	0.79	900 nM	1.46	5.36	700 nM	Cc1cnc2c(NC(=O)N3c4nc(-c5cccc(C(F)(F)F)c5)ccc4N4CC[C@H]3C4)cccc2n1 [Example 8]
